Measurements published in patent US20220249597A1, “MIF INHIBITORS AND METHODS OF USE THEREOF” (The Johns Hopkins University, priority 2016, published 2022).

Assays:
cortical neurons = conditions: N-Arg 100 μM
Method: (H-J) Nuclear translocation of AIF and MIF after NMDA treatment in the presence or absence PARP inhibitor DPQ or nNOS inhibitor nitro-arginine (N-Arg, 100 μM) in cortical neurons, which was determined by subcellular fractionation. Intensity of MIF and AIF signal is shown in I & J. The experiments were replicated in three independent trials. The experiments were replicated in three independent trials. ***P<0.001, one-way ANOVA.
Primary neuronal cultures from cortex were prepared as previously described (9). Briefly, the cortex was dissected and the cells were dissociated by trituration in modified Eagle's medium (MEM), 20% horse serum, 30 mM glucose, and 2 mM L-glutamine after a 10-min digestion in 0.027% trypsin/saline solution (Gibco-BRL). The neurons were plated on 15-mm multiwell plates coated with polyornithine or on coverslips coated with polyornithine. Neurons were maintained in MEM, 10% horse serum, 30 mM glucose, and 2 mM L-glutamine in a 7% CO2 humidified 37° C. incubator. The growth medium was replaced twice per week. In mature cultures, neurons represent 70 to 90% of the total number of cells. […] Parthanatos was induced by either MNNG (Sigma) in HeLa cells or NMDA (Sigma) in neurons. […]

HeLa cells [1] = experiment: Pulse-field gel electrophoresis assay of MNNG-induced DNA damage in HeLa cells; type: cell-based, human; conditions: DPQ 30 μM; ISO-1 100 μM
Excerpt: FIGS. 2A-2D. FIG. 2. MIF is a novel nuclease that cleaves genomic DNA.

HeLa cells [2] = type: cell-based, human; conditions: DPQ 30 μM
Method: FIGS. 21A-21J. FIG. 21. […] Scale bar, 20 μm.
For immunocytochemistry, cells were fixed 4 hours after MNNG or NMDA treatment with 4% paraformaldehyde, permeabilized with 0.05% Triton X-100, and blocked with 3% BSA in PBS. AIF was visualized by Donkey anti-Rabbit Cy3 or donkey anti-rabbit 647. MIF was visualized by donkey anti-mouse cy2 (2 μg/ml), donkey anti-goat Cy2 or donkey anti-goat 647. Immunohistochemistry was performed with an antibody against Flag. Immunofluorescence analysis was carried out with an LSM710 confocal laser scanning microscope (Carl Zeiss) as described (9).

SMILES: O=C1NCCc2c(OCCCCN3CCCCC3)cccc21 [DPQ, 3,4-dihydro-5[4-(1-piperindinyl)butoxy]-1(2H)-isoquinoline]
- Accumulation of MIF and AIF in the nucleus after NMDA administration (cortical neurons): prevents accumulation of both MIF and AIF in the nucleus
- Effect on MNNG induced DNA damage / DNA cleavage (HeLa cells [1]): prevents MNNG induced DNA cleavage
- Accumulation of MIF and AIF in the nucleus after MNNG treatment (HeLa cells [2]): prevents accumulation of both MIF and AIF in the nucleus
